# Assays:
# [1] = test system: atrogin-1 mRNA in C2C12 muscle cells; test: RT-PCR of atrogin-1 mRNA expression in C2C12 muscle cells treated with squalene; assay type: cell-based; conditions: cultured 12 hours, FIG. 3
# Description: (§1) Thus, in order to identify whether the produced muscle proteins can also be protected against degradation through degradation-inhibitory activity of squalene, mRNA transcriptional expression levels of atrogin-1 and MuRF1 which are muscle-degrading proteins were checked.
# (§2) Specifically, C2C12 muscle cells were treated with squalene and cultured for 12 hours while inducing differentiation, by performing the same method as in the above <Example 1>. The resulting cells were obtained. Total RNA was isolated from the obtained cells using a TRIzol reagent (Invitrogen, Carlsbad, Calif., USA). The isolated total RNA was quantitated using NanoDrop 1000 (Thermo Fisher Scientific Inc., Waltham, Mass., USA). The quantified 16 μL of RNA was synthesized into cDNA using Reverse Transcriptase Premix (ELPISBIOTECH. INC) and a PCR machine (Gene Amp PCR System 2700; Applied Biosystems, Foster City, Calif., USA) under a condition at 42° C. for 55 minutes and 70° C. for 15 minutes. 3 μL of cDNA out of the synthesized cDNA, specific primers (BIONEER CORPORATION, Daejeon, Korea) as shown in the following [Table 1], and a PCR premix (ELPISBIOTECH. INC) were mixed, and PCR was performed by repeating 30 cycles of 95° C. for 30 seconds, 60° C. for 1 minute, and 72° C. for 1 minute. […]
# [2] = test system: immobilized rats (muscle atrophy and muscle damage); test: Weight of muscle physically directly damaged by the stapler (regeneration of damaged muscles); assay type: in vivo, rats (C57BL/6J); conditions: right hindlimb, squalene 100 and 200 mg/kg/day oral for one week, vs immobilized group, **P<0.01, FIG. 7
# Description: (§3) Seven-week-old male rats (C57BL/6J; DBL Co., Ltd.) were purchased as experimental animals, and experiments were conducted. All animals were kept at the Yonsei Laboratory Animal Research Center (YLARC, Seoul, Korea), and an environment under which the animals were kept was maintained at a temperature of 23±2° C. and a relative humidity of 55±10%. Before starting experiments, a total of 28 rats were randomly assigned to 7 rats per group, and the groups were divided into a normal group, an immobilized group, 100 mg/kg/day of squalene-administered group (squalene 100-administered group), and 200 mg/kg/day of squalene-administered group (squalene 200-administered group). After one week of adaptation, anesthesia was induced by intraperitoneal injection of 325 mg/kg of tribromoethanol (Sigma-Aldrich). […] One week later, the staples fixed on the gastrocnemius muscle and the sole were removed and squalene was orally administered at a concentration of 100 mg/kg and 200 mg/kg on a daily basis for one week. The normal group and the immobilized group were orally administered saline instead of squalene. In the rat from which the tibialis anterior muscle of the right hindlimb was extracted in the above <Example 4-3>, a tibialis anterior muscle of the right hind limb, which was physically directly damaged by the stapler, was extracted and weighed.
# [3] = test system: p-p70S6K in C2C12 muscle cells; test: Western blot of p-p70S6K protein in C2C12 muscle cells treated with squalene; assay type: cell-based; conditions: FIG. 2
# Description: Thus, in order to identify this fact in a more specific manner, a phosphorylation-induced activity level of p70S6K protein, which is known to be involved in an mRNA translation process in muscle cells, was checked, instead of an expression level of p-mTOR. Specifically, C2C12 muscle cells were treated with squalene and cultured while inducing differentiation, by performing the same method as in the above <Example 1>. The resulting cells were obtained and subjected to western blotting. A p-p70S6K antibody (Santa Cruz Biotechnology, Inc., Santa Cruz, Calif., USA) was used as a primary antibody for western blotting.
# [4] = test system: immobilized rats (muscle atrophy and muscle damage); test: Myofiber cross-sectional area in tibialis anterior muscle (H&E staining, Image J); assay type: in vivo, rats (C57BL/6J); conditions: squalene 100 and 200 mg/kg/day oral for one week; vs immobilized group, **P<0.01; FIG. 6
# Description: as §3, with “squalene. […]” for “squalene.”, “addition, myofibers were photographed and a cross-sectional area thereof was measured with an Image J program (National Institutes” for “the rat from which the tibialis anterior muscle”, “Health, Bethesda, […], USA).” for “the right hindlimb was extracted in the above <Example 4-3>, a tibialis anterior muscle of the right hind limb, which was physically directly damaged by the stapler, was extracted and weighed.”
# [5] = test system: MuRF1 mRNA in C2C12 muscle cells; test: RT-PCR of MuRF1 mRNA expression in C2C12 muscle cells treated with squalene; assay type: cell-based; conditions: cultured 12 hours, FIG. 3
# Description: as §1, §2
# [6] = test system: immobilized rats (muscle atrophy and muscle damage); test: Muscular strength (muscular strength meter) after hindlimb immobilization; assay type: in vivo, rats (C57BL/6J); conditions: squalene 100 and 200 mg/kg/day oral for one week after one week immobilization; vs immobilized group, **P<0.01; FIG. 4
# Description: Seven-week-old male rats (C57BL/6J; DBL Co., Ltd.) were purchased as experimental animals, and experiments were conducted. All animals were kept at the Yonsei Laboratory Animal Research Center (YLARC, Seoul, Korea), and an environment under which the animals were kept was maintained at a temperature of 23±2° C. and a relative humidity of 55±10%. Before starting experiments, a total of 28 rats were randomly assigned to 7 rats per group, and the groups were divided into a normal group, an immobilized group, 100 mg/kg/day of squalene-administered group (squalene 100-administered group), and 200 mg/kg/day of squalene-administered group (squalene 200-administered group). After one week of adaptation, anesthesia was induced by intraperitoneal injection of 325 mg/kg of tribromoethanol (Sigma-Aldrich). […] One week later, the staples fixed on the gastrocnemius muscle and the sole were removed and squalene was orally administered at a concentration of 100 mg/kg and 200 mg/kg on a daily basis for one week. The normal group and the immobilized group were orally administered saline instead of squalene. After the oral administration period was completed in the above <Example 4-1>, muscular strength of the rats was measured using a muscular strength meter (Columbus Instruments International, Columbus, Ohio, USA). All forelimbs and hindlimbs of the rat were grasped on a grid. […]
# [7] = test system: immobilized rats (muscle atrophy and muscle damage); test: Weight of tibialis anterior muscle of right hindlimb after immobilization; assay type: in vivo, rats (C57BL/6J); conditions: muscle not damaged by stapler, squalene 100 and 200 mg/kg/day oral for one week, vs immobilized group, *P<0.05, FIG. 5
# Description: as §3, with “After” for “In”, “measurement” for “rat from which the tibialis anterior muscle”, “muscular strength” for “the right hindlimb was extracted”, “4-2> was completed, the experimental animals were anesthetized by intraperitoneal injection” for “4-3>, a tibialis anterior muscle”, “325 mg/kg of tribromoethanol (Sigma-Aldrich), and then sacrificed” for “the right hind limb, which was physically directly damaged”, “cardiac puncture. […]” for “the stapler, was extracted and weighed.”
# [8] = test system: p-mTOR in C2C12 muscle cells; test: Western blot of phosphorylated mTOR (p-mTOR) in C2C12 muscle cells treated with squalene; assay type: cell-based; conditions: FIG. 1
# Description: In a case where mTOR protein is activated by phosphorylation, expression levels of major proteins in muscle cells which are expressed upon differentiation and are associated with muscle protein synthesis and muscle mass increase in a PI3K/Akt signaling pathway were checked. The obtained cells were lysed with an NP-40 buffer solution (ELPISBIOTECH. INC, Daejeon, Korea) containing a protease inhibitor cocktail (Sigma-Aldrich), and centrifuged at 13,000 rpm for 10 minutes to obtain a cell lysate which is a supernatant. A protein concentration in the supernatant was quantitated by Bradford. Then, a predetermined concentration of the proteins was heated for 5 minutes and separated by SDS-PAGE electrophoresis. The separated proteins were transferred to a nitrocellulose membrane. Then, a p-mTOR primary antibody (Cell Signaling Technology, Inc., Beverly, Mass., USA) was diluted with 2.5% bovine serum albumin (BSA; BioWORLD, Dublin, Ohio, USA) at a ratio of 1:1,000, and the resultant was allowed to react with the proteins, which had been transferred to the nitrocellulose membrane, at room temperature for 20 hours. […] Protein bands detected through antibody binding were developed using the ECL Western Blot Detection Reagent (Amersham, Tokyo, Japan), and the developed protein bands were identified using a G:BOX EF imaging system (Syngene, Cambridge, UK).
smiles,measurement,setting,value
"CC(C)=CCC/C(C)=C/CC/C(C)=C/CC/C=C(\C)CC/C=C(\C)CCC=C(C)C [squalene, (6E,10E,14E,18E)-2,6,10,15,19,23-hexamethyltetracosa-2,6,10,14,18,22-hexaene]",mRNA expression level of atrogin-1,[1],decreased
same,weight of the tibialis anterior muscle physically directly damaged by the stapler,[2],increased in a concentration-dependent manner
same,expression level of the p-p70S6K protein,[3],increased
same,myofiber cross-sectional area in the tibialis anterior muscle,[4],increased in a concentration-dependent manner
same,mRNA expression level of MuRF1,[5],decreased
same,muscular strength,[6],restored in a concentration-dependent manner
same,weight of the tibialis anterior muscle,[7],increased in a concentration-dependent manner
same,expression level of phosphorylated mTOR (p-mTOR),[8],increased
